For test [1], the system named is PBMCs from healthy donors. The test can be described thus: CFSE proliferation assay, CD25-depleted PBMCs of healthy donors. As to conditions: 10 μg/ml peptide, day 10, vs media control. It is filed as cell-based, human. The method, then: (§1) Peripheral blood samples were drawn into lithium heparin tubes (Becton Dickinson) and processed immediately following venepuncture. PBMCs were isolated by density gradient centrifugation using Ficoll-Hypaque. Proliferation and cultured ELISpot assay of PBMCs were performed immediately after isolation. For CD25 depletion PBMCs were processed as above and […] using anti-CD25 microbeads and MACS Cell Separation Columns (Miltenyi).
Briefly, a 50 μM stock solution in warm PBS was prepared from a master solution of 5 mM in dimethyl sulfoxide (DMSO). CFSE was rapidly added to PBMCs (5×10^6 cells/ml loading buffer (PBS with 5% v/v heat inactivated FCS)) to achieve a final concentration of 5 μM. PBMCs were incubated at room temperature in the dark for 5 mins after which non-cellular incorporated CFSE was removed by washing twice with excess (×10 v/v volumes) of loading buffer (300g ×10 mins). Cells were made up in complete media to 1.5×10^6/mL and plated and stimulated with vehicle (negative control), PHA (positive control, final concentration 10 μg/ml) or peptide (10 μg/ml) as described above.
On day 10, 500 μl of cells were removed from culture, washed in PBS and stained with 1:50 dilution of anti-CD4 (PE-Cy5, clone RPA-T4, ThermoFisher), anti-CD8 efluor 450, clone RPA-T8, ThermoFisher) and anti-CD134 (PE-Cy7, Clone REA621, Miltenyi). […] Stained samples were analysed immediately on a MACSQuant 10 flow cytometer equipped with MACSQuant software version 2.8.168.16380.
Determination as to the existence of a repertoire of T cells for carbamylated epitopes in humans was investigated using PBMCs from normal, healthy donors. […] Cells were labelled with CFSE and proliferation was monitored after stimulation with homocitrulline peptides. […]
Determination as to the existence of a repertoire of T cells for carbamylated Cyk8 epitopes in humans was investigated using PBMCs from seven normal, healthy donors. […] Cells were labelled with CFSE and proliferation was monitored after stimulation with Cyk8 Hcit peptides.

Test [2] concerns B16 HHDII/DP4 tumour cells. The test can be described thus: Tumour therapy, B16 HHDII/DP4 tumour in HHDII/DP4 mice. Particulars: peptide with CpG/MPLA days 4, 11, 18. It is filed as in vivo, mouse. The text has this: To determine if the epitopes that stimulate T cell responses are presented on MHC-II within the tumour environment, our homocitrullinated peptides were checked for tumour therapy in B16 tumour models. Mice were implanted with tumour cells on day 1 and then immunised with peptides and CpG/MPLA on days 4, 11 and 18.
HHDII/DP4 mice were challenged with B16 HHDII/DP4 tumour cells and then immunised with ALDOA homocitrulline peptides (FIG. 19c).
Next, we aimed to determine if these cell populations play a role in carbamylation in the tumour microenvironment and are therefore necessary for the anti-tumour effect. HHDII/DP4 mice were implanted with tumour and then immunised with ALDOA homocitrulline peptides. Mice where then either untreated or treated with Ly6G or Ly6C depletion antibodies to remove either the neutrophils/G-MDSCs or monocytes/M-MDSCs, respectively Peptide vaccination was associated with 100% survival whereas peptide and Ly6G+antibody was associated with a slight but significant reduction in the anti-tumour effect (80% survival, p=0.04) (FIG. 23a).
Next, antibodies were used to deplete the Ly6C+ population (FIG. 23b). Ly6C depletion alone increased survival when compared to control (20% survival, p=0.0012). For this study vaccination alone gave 80% survival (p<0.0001).

Test [3] relates to PBMCs from cancer patients. The test can be described thus: CFSE proliferation assay, CD25-depleted PBMCs of cancer patients. It is filed as cell-based, human. As to conditions: 10 μg/ml peptide, day 10, vs media control. As for the experimental part:
as §1
Briefly, a 50 μM stock solution in warm PBS was prepared from a master solution of 5 mM in dimethyl sulfoxide (DMSO). CFSE was rapidly added to PBMCs (5×10^6 cells/ml loading buffer (PBS with 5% v/v heat inactivated FCS)) to achieve a final concentration of 5 μM. PBMCs were incubated at room temperature in the dark for 5 mins after which non-cellular incorporated CFSE was removed by washing twice with excess (×10 v/v volumes) of loading buffer (300g ×10 mins). […]
On day 10, 500 μl of cells were removed from culture, washed in PBS and stained with 1:50 dilution of anti-CD4 (PE-Cy5, clone RPA-T4, ThermoFisher), anti-CD8 efluor 450, clone RPA-T8, ThermoFisher) and anti-CD134 (PE-Cy7, Clone REA621, Miltenyi). […] Stained samples were analysed immediately on a MACSQuant 10 flow cytometer equipped with MACSQuant software version 2.8.168.16380. […]

Test [4] relates to B16HHDII/iDP4 tumour cells. Description: Tumour therapy, B16HHDII/iDP4 tumour in HHDII/DP4 mice. The test is classed as in vivo, mouse. Particulars: peptide with CpG/MPLA. The method, then: For tumour challenge experiments, mice were challenged with B16F1 cells s.c. on the right flank 3 days before primary immunisation (unless stated otherwise) and subsequently immunised as above. Tumour implants were carried out at dose of 2.5×10^4 cells/mouse for B16F1, 2.5×10^4 cells/mouse for B16F1 DR4, 4×10^5 cells/mouse for B16F1 HHDII/DP4, 5×10^5 cells/mouse for B16 HHDII/DR1, 1×10^5 cells/mouse for B16F1 HHDII/inducibleDP4, 5×10^4 cells/mouse for B16F1 inducible DR4. For studies involving depletion antibodies, 250 μg anti-mouse Ly6C antibody (clone Monts, BioXcell) was administered i.p. on days 8, 10, 12, 15, 17 and 19. 400 μg anti-mouse Ly6G antibody (clone 1A8, Biolegend) was administered i.p. on day 8 followed by 250 μg on days 11, 15 and 18. Anti-human CD4 antibody (clone OKT4, BioXcell) or anti-mouse CD8 antibody (clone 2.43, BioXcell) were administered at 500 μg dose on day 4 followed by 300 μg dose on days 8 and 11. Tumour growth was monitored twice weekly and mice were humanely euthanised once tumour reached ≥15 mm in diameter.
To provide further evidence for the role of CD4 T cell responses in tumour therapy HHDII/DP4 mice were implanted with B16HHDII/iDP4 tumour cells on day 1 and then immunised with peptides and CpG/MPLA on days 4, 8 and 11. Concurrent with peptide immunisation mice were also treated with CD4 or CD8 depleting antibody and tumour growth monitored. […] To show whether cyanate/isocyanic acid can cross cell membranes B16F1 melanoma cell line was cultured in vitro in the presence or absence of potassium cyanate which is in dynamic equilibrium with isocyanic acid. As a positive control lysates were also produced from in vitro cultured B16F1 cells and then treated with or without KCNO.

Where no end group is shown, it is not given here. [ ]: non-standard residue; d: D form. hCit = NC(=O)NCCCC[C@H](N)C(=O)O

On to “hcit-DGADFA-hcit-WRCVL-hcit-IGEH ([hCit]DGADFA[hCit]WRCVL[hCit]IGEH) [Aldolase A 140-157 Hcit]”, for which the “CD4 T cell proliferation” value in test [1] is “significant CD4 proliferation”. For the same substance, the survival in test [2] came out at 60%.
On to “NYID-Hcit-VRFLEQQN-Hcit-ILLAEL (NYID[hCit]VRFLEQQN[hCit]ILLAEL) [Vimentin 116-135 Hcit]”, for which the results for the “CD4 T cell proliferation” value in test [1] and in test [3] were “significant CD4 proliferation” and “just short of significance”, respectively.
As for “IGGVILFHETLYQ-hcit-ADDGRP (IGGVILFHETLYQ[hCit]ADDGRP) [Aldolase A 74-93 Hcit]”, the “CD4 T cell proliferation” value is on record as “significant CD4 proliferation” in test [1] and “significant proliferative responses” in test [3]. This substance also came in with a survival in test [2] of 90%.
With “LREYQELMNV-hcit-LALDIEI (LREYQELMNV[hCit]LALDIEI) [Cyk8 371-388 Hcit]”, the “tumour growth / survival vs control” value in test [4] is “Significant prevention of tumour growth”.

For the origin of these results see US12458688B2, “Epitopes” (Scancell Limited, priority 2018, dated 2025).
